According to PubChem BioAssay (NCI):
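Cells were grown in 96-well plates and exposed to each compound for 48 hours at five concentrations; endpoints were interpolated linearly between bracketing concentrations, or set to the highest concentration if not reached. TGI marks complete inhibition of growth.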

Assays:
Test in all cases: NCI anticancer screen, dose series, 48 h
NCI/ADR-RES ovarian = system: NCI/ADR-RES ovarian
NCI-H23 lung = system: NCI-H23 lung
MDA-N = system: MDA-N
MALME-3M melanoma = system: MALME-3M melanoma
HCT-116 colon = system: HCT-116 colon
SF-295 CNS = system: SF-295 CNS
K-562 leukemia = system: K-562 leukemia
CAKI-1 renal = system: CAKI-1 renal
NCI-H522 lung = system: NCI-H522 lung
SNB-75 CNS = system: SNB-75 CNS
MOLT-4 leukemia = system: MOLT-4 leukemia
TK-10 renal = system: TK-10 renal
HCT-15 colon = system: HCT-15 colon
OVCAR-3 ovarian = system: OVCAR-3 ovarian
SR leukemia = system: SR leukemia
U251 CNS = system: U251 CNS
A549 NSCLC = system: A549 NSCLC
HCC-2998 colon = system: HCC-2998 colon
KM12 colon = system: KM12 colon
PC-3 prostate = system: PC-3 prostate
786-0 renal = system: 786-0 renal
SW-620 colon = system: SW-620 colon
MDA-MB-435 = system: MDA-MB-435
MDA-MB-231 breast = system: MDA-MB-231 breast
OVCAR-4 ovarian = system: OVCAR-4 ovarian
IGROV1 ovarian = system: IGROV1 ovarian
SK-MEL-28 melanoma = system: SK-MEL-28 melanoma
ACHN renal = system: ACHN renal
SF-268 CNS = system: SF-268 CNS
LOX IMVI melanoma = system: LOX IMVI melanoma
SK-OV-3 ovarian = system: SK-OV-3 ovarian
M14 melanoma = system: M14 melanoma
SN12C renal = system: SN12C renal
HS 578T breast = system: HS 578T breast
DU-145 prostate = system: DU-145 prostate
HOP-62 NSCLC = system: HOP-62 NSCLC
UACC-257 melanoma = system: UACC-257 melanoma
CCRF-CEM leukemia = system: CCRF-CEM leukemia
SK-MEL-5 melanoma = system: SK-MEL-5 melanoma
SF-539 CNS = system: SF-539 CNS
MCF7 breast = system: MCF7 breast
HT29 colon = system: HT29 colon
BT-549 breast = system: BT-549 breast
OVCAR-8 ovarian = system: OVCAR-8 ovarian
HL-60(TB) leukemia = system: HL-60(TB) leukemia
T-47D breast = system: T-47D breast
RPMI-8226 leukemia = system: RPMI-8226 leukemia
UACC-62 melanoma = system: UACC-62 melanoma
HOP-92 NSCLC = system: HOP-92 NSCLC
OVCAR-5 ovarian = system: OVCAR-5 ovarian
COLO 205 colon = system: COLO 205 colon

Measured: TGI

COc1cc(OC)c(OC)cc1/C=C/c1ccc2ccccc2n1
> 10 µM: NCI/ADR-RES ovarian | NCI-H23 lung | MDA-N | MALME-3M melanoma | HCT-116 colon | SF-295 CNS | K-562 leukemia | CAKI-1 renal | NCI-H522 lung | SNB-75 CNS | MOLT-4 leukemia | TK-10 renal | HCT-15 colon | OVCAR-3 ovarian | SR leukemia | U251 CNS | A549 NSCLC | HCC-2998 colon | KM12 colon | PC-3 prostate | 786-0 renal | SW-620 colon | MDA-MB-435 | MDA-MB-231 breast | OVCAR-4 ovarian | IGROV1 ovarian | SK-MEL-28 melanoma | ACHN renal | SF-268 CNS | LOX IMVI melanoma | SK-OV-3 ovarian | M14 melanoma | SN12C renal | HS 578T breast | DU-145 prostate | HOP-62 NSCLC | UACC-257 melanoma | CCRF-CEM leukemia | SK-MEL-5 melanoma | SF-539 CNS | MCF7 breast | HT29 colon | BT-549 breast | OVCAR-8 ovarian | HL-60(TB) leukemia | T-47D breast | RPMI-8226 leukemia | UACC-62 melanoma | HOP-92 NSCLC | OVCAR-5 ovarian | COLO 205 colon
